Results on 22 compounds are retold here after US20240376114A1, “NUCLEAR TRANSPORT MODULATORS AND USES THEREOF” (Karyopharm Therapeutics Inc., priority 2011, published 2024).

Where two headings read alike, the source gives them in different places. Bounds are passed on as bounds.

Series [1] in a line: CellTiter 96 AQueous One Solution (MTS) cell proliferation assay. As to conditions: human, MM.1S multiple myeloma cells; MM.1S cells, 72 h treatment; read-out: Cytotoxicity [EC50]. The series is classed as cell-based. The text has this:
(§1) The CellTiter 96® AQueous One Solution cell proliferation assay (Promega) was used on MM.1S multiple myeloma cell line to study the cytotoxic and cytostatic properties of the compounds. The assay is based on the cleavage of the tetrazolium salt, MTS, in the presence of an electron-coupling reagent PES (phenazine ethosulfate). The MTS tetrazolium compound is bioreduced by cells into a colored formazan product that is soluble in tissue culture medium. This conversion is presumably accomplished by NADPH or NADH produced by dehydrogenase enzymes in metabolically active cells. Assays are performed by adding a small amount of the CellTiter 96® AQueous One solution reagent directly to culture wells, incubating for 1-4 hours and then recording the absorbance at 490 nm with a 96-well plate reader.
(§2) The cells were seeded at 5×10^3 to 1.5×10^4 cells (depending on cell type) in each well of a 96-well plate in 100 μL of fresh culture medium and adherent cells were allowed to attach overnight. The stock solutions of the compounds were diluted in cell culture medium to obtain eight concentrations of each drug, ranging from 1 nM to 30 μM and DMSO at less than 1% v/v was used as a negative control. The resulting drug solutions were transferred onto the cells. After 72 h of treatment, 20 μl of CellTiter 96® AQueous reagent was added into each well of the 96-well assay plates and the plate was incubated at 37° C. for 1-4 hours in a humidified, 5% CO2 atmosphere. Then the absorbance of each well was recorded at 490 nm using a 96-well plate reader. In most cases, the assay was performed in triplicate and the results were presented as half maximal inhibitory concentration (IC50). Optical density versus compound concentration was plotted and analyzed using non-linear regression equations (IDBS XLfit) and the IC50 for each compound was calculated.

Series [2] is described as follows: Pharmacokinetic (PK) assay, plasma AUC. In kind it is in vivo. Conditions: mouse, PO. As for the experimental part: Pharmacokinetics (PK) play an increasing role in drug discovery and development. Pharmacokinetics is the quantitative study of the time course of drug absorption, distribution, metabolism and/or excretion. When a drug is administered, it distributes rapidly from its administration site into the systemic blood circulation. One measure of the extent of a therapeutic agent's distribution is the area under the plasma concentration-time curve (AUC), calculated to the last measured concentration (AUCt) and extrapolated to infinity (AUCinf). AUC is thus a useful metric to quantitate drug exposure. AUC. Blood was collected from mice (N=3) to contribute to the total of 10 time points (pre-dose, 5 min, 15 min, 30 min, 1 hour, 2 hours, 4 hours, 8 hours, 12 hours and 24 hours post dose). Mice were bled on a rotating basis, each mouse contributing 3 time points to the blood collection. At the designated time points, animals were anaesthetized under isoflurane, and approximately 110 μL of blood per time point was collected via retro-orbital puncture into pre-cooled K2EDTA (anti-coagulant) tubes. Blood samples were put on wet ice and centrifuged (2000 g, 5 min at 4° C.) to obtain plasma within 30 minutes of sample collection. All samples were stored frozen at approximately −80° C. until analysis. Prior to analysis, samples were mixed with internal standard (dexamethasone) in acetonitrile, vortexed, centrifuged, and supernatant was injected for analysis. Concentration of compounds in plasma was determined using LC-MS-MS instrumentation (API 4000, Triple Quadruple with electrospray ionization; Acuity Ultra Performance Liquid Chromatography column C18, with MeOH and formic acid as organic solvents). AUC values were calculated using WinNonlin Professional 6.2 software package, non-compartmental pharmacokinetic model NCA200.

Series [3] is described as follows: Brain to plasma (B:P) ratio determination. Conditions: brain and plasma; mouse, PO at 10 mg/kg, 2 hours post-dose. The series is classed as in vivo. The text has this: The brain to plasma (B:P) ratio is one method of quantifying the relative distribution of a therapeutic agent in brain tissue to that in circulation and, as such, provides one indication of the brain penetration of a given therapeutic agent. A high brain to plasma ratio is preferred when targeting diseases localized in the central nervous system (CNS), including the brain and the cerebrospinal fluid. However, a lower brain to plasma ratio is generally preferable for non-CNS therapeutic agents to minimize brain penetration and avoid potential side effects caused by unwanted accumulation of the therapeutic agents in the brain and CNS tissue.
Brain to Plasma (B:P) Ratio. […] Following collection, brain tissue was rinsed with cold saline, dried on filter paper, weighed and snap-frozen by placing on dry ice. All samples were stored frozen at approximately −80° C. until analysis. […] Plasma samples were treated with the identical method (except homogenization step) and the concentration of compound in each matrix was calculated based on generated standard curves.

The test system of series [4] is MM.1S multiple myeloma cell line. Kind of series: CellTiter 96 AQueous One Solution (MTS) cell proliferation assay. In kind it is cell-based.
From the text: as §1, §2

Setting [5] is: 5 mg/kg, 5 mpk, read-out: AUCInf hr * ng/mL (mouse, PO), tested at 5 mpk.
Setting [6] is: 10 mg/kg, 10 mpk, read-out: AUCInf hr * ng/mL (mouse, PO, 10 mpk).
Where [7] appears, read: MM.1S cells, 72 h treatment, read-out: Cytotoxicity [EC50].

`CC1(O)CN(C(=O)/C=C\n2cnc(-c3cc(C(F)(F)F)cc(C(F)(F)F)c3)n2)C1` [Example 8, (Z)-3-(3-(3,5-bis(trifluoromethyl)phenyl)-1H-1,2,4-triazol-1-yl)-1-(3-hydroxy-3-methylazetidin-1-yl)prop-2-en-1-one]: the EC50 at 72 h in series [1] was less than 1000 nM. The AUC(0-inf) in series [2] (setting [5]) came out at 9050 ng·h/mL. The Kp at 2 h in series [3] came out at 3.16.
As to `O=C(/C=C\n1cnc(-c2cc(C(F)(F)F)cc(C(F)(F)F)c2)n1)N1CCC1` [Compound 23, (Z)-1-(azetidin-1-yl)-3-(3-(3,5-bis (trifluoromethyl)phenyl)-1H-1,2,4-triazol-1-yl) prop-2-en-1-one], the EC50 at 72 h in series [1] is less than 1000 nM. Also, in series [2] (setting [6]), the AUC(0-inf) was found to be 521 ng·h/mL.
Turning to `O=C(/C=C\n1cnc(-c2cc(C(F)(F)F)cc(C(F)(F)F)c2)n1)NNc1ccccn1` [Compound 71], the EC50 at 72 h in series [1] was less than 1000 nM. Also, the AUC(0-inf) in series [2] (setting [6]) is 10800 ng·h/mL. Moreover, the Kp at 2 h in series [3] was 1.8.
Consider `O=C(/C=C\n1cnc(-c2cc(C(F)(F)F)cc(C(F)(F)F)c2)n1)NCc1cnco1` [Example 11, (Z)-3-(3-(3,5-bis(trifluoromethyl)phenyl)-1H-1,2,4-triazol-1-yl)-N-(oxazol-5-ylmethyl)acrylamide], for which, in series [1], the EC50 at 72 h was less than 1000 nM. In addition, the AUC(0-inf) in series [2] (setting [5]) came out at 3080 ng·h/mL.
Regarding `O=C(/C=C\n1cnc(-c2cc(C(F)(F)F)cc(C(F)(F)F)c2)n1)NNc1cnccn1` [Compound 70], the EC50 at 72 h in series [1] is less than 1000 nM. Further, the AUC(0-inf) in series [2] (setting [6]) amounted to 10100 ng·h/mL.
Take `NCC1(F)CN(C(=O)/C=C\n2cnc(-c3cc(C(F)(F)F)cc(C(F)(F)F)c3)n2)C1` [Compound 60, (Z)-1-(3-(aminomethyl)-3-fluoroazetidin-1-yl)-3-(3-(3,5-bis(trifluoromethyl)phenyl)-1H-1,2,4-triazol-1-yl)prop-2-en-1-one]: the EC50 at 72 h in series [1] was less than 1000 nM. In series [2] (setting [5]), the AUC(0-inf) stood at 1240 ng·h/mL. Also, the Kp at 2 h in series [3] stood at 13.3.
As for “(Z)-3-(3-(3,5-bis(trifluoromethyl)phenyl)-1H-1,2,4-triazole-1-yl)-N-(1-(5-methylpyrimidine-2-yl)ethyl)acrylamide [Compound 21]”, the EC50 in series [4] (setting [7]) is 1000 to 10000 nM.
In the case of `O=C(/C=C\n1cnc(-c2cc(C(F)(F)F)cc(C(F)(F)F)c2)n1)N1CC(F)C1` [Example 7, (Z)-3-(3-(3,5-bis(trifluoromethyl)phenyl)-1H-1,2,4-triazol-1-yl)-1-(3-fluoroazetidin-1-yl)prop-2-en-1-one], the EC50 at 72 h in series [1] is less than 1000 nM. The AUC(0-inf) in series [2] (setting [6]) was found to be 2510 ng·h/mL.
As for “(Z)-3-(2-(3,5-bis(trifluoromethyl)phenyl)-1H-pyrrol-1-yl)-1-(3,3-difluoroazetidin-1-yl)prop-2-en-1-one [Compound 65]”, the EC50 in series [4] (setting [7]) is greater than 10000 nM.
For “(E)-3-(6-(3,5-bis(trifluoromethyl)phenyl)pyridin-2-yl)-1-(3,3-difluoroazetidin-1-yl)prop-2-en-1-one [Compound 15]”, the EC50 in series [4] was greater than 10000 nM.
Turning to `O=C(/C=C\n1cnc(-c2cc(F)cc(C(F)(F)F)c2)n1)N1CC(F)(F)C1` [Example 2, (Z)-1-(3,3-difluoroazetidin-1-yl)-3-(3-(3-fluoro-5-(trifluoromethyl)phenyl)-1H-1,2,4-triazol-1-yl)prop-2-en-1-one], in series [1], the EC50 at 72 h is less than 1000 nM. Moreover, the AUC(0-inf) in series [2] (setting [6]) was found to be 396 ng·h/mL.
For the compound `O=C(/C=C\n1cnc(-c2cc(C(F)(F)F)cc(C(F)(F)F)c2)n1)N1CC2(CNC2)C1` [Compound 52, (Z)-3-(3-(3,5-bis(trifluoromethyl)phenyl)-1H-1,2,4-triazol-1-yl)-1-(2,6-diazaspiro[3.3]heptan-2-yl)prop-2-en-1-one 2,2,2-trifluoroacetate], the EC50 at 72 h in series [1] was less than 1000 nM.
Turning to `O=C(/C=C\n1cnc(-c2cc(C(F)(F)F)c(Cl)c(C(F)(F)F)c2)n1)N1CC(F)(F)C1` [Compound 59, (Z)-3-(3-(4-chloro-3,5-bis(trifluoromethyl)phenyl)-1H-1,2,4-triazol-1-yl)-1-(3,3-difluoroazetidin-1-yl)prop-2-en-1-one], the EC50 at 72 h in series [1] was less than 1000 nM.
Consider `O=C(/C=C\n1ccc(-c2cc(C(F)(F)F)cc(C(F)(F)F)c2)n1)N1CC(F)(F)C1` [Compound 35, (Z)-3-(3-(3,5-bis(trifluoromethyl)phenyl)-1H-pyrazol-1-yl)-1-(3,3-difluoroazetidin-1-yl)prop-2-en-1-one], for which the EC50 at 72 h in series [1] was less than 1000 nM.
On the same count and under the same terms, the value for `O=C(/C=C\n1cnc(-c2cc(O)cc(C(F)(F)F)c2)n1)N1CC(F)(F)C1` [Example 3, (Z)-1-(3,3-difluoroazetidin-1-yl)-3-(3-(3-hydroxy-5-(trifluoromethyl)phenyl)-1H-1,2,4-triazol-1-yl)prop-2-en-1-one] was less than 1000 nM.
As to `O=C1CC(c2cc(C(F)(F)F)cc(C(F)(F)F)c2)CN1/C=C/C(=O)N1CC(F)(F)C1` (stereo not shown) [Compound 44, (E)-4-(3,5-bis(trifluoromethyl)phenyl)-1-(3-(3,3-difluoroazetidin-1-yl)-3-oxoprop-1-enyl)pyrrolidin-2-one], in series [1], the EC50 at 72 h is greater than 10000 nM.
For `O=C(/C=C\n1cnc(-c2cc(C(F)(F)F)cc(C(F)(F)F)c2)n1)N1CCC(O)CC1` [Compound 66, (Z)-3-(3-(3,5-bis(trifluoromethyl)phenyl)-1H-1,2,4-triazol-1-yl)-1-(4-hydroxypiperidin-1-yl)prop-2-en-1-one], the EC50 at 72 h in series [1] is less than 1000 nM.
Consider `O=C(/C=C\c1n[nH]c(-c2cc(C(F)(F)F)cc(C(F)(F)F)c2)n1)N1CC(F)(F)C1` [Compound 12, (Z)-3-(5-(3,5-bis(trifluoromethyl)phenyl)-4H-1,2,4-triazol-3-yl)-1-(3,3-difluoroazetidin-1-yl)prop-2-en-1-one], for which the EC50 at 72 h in series [1] lay within 1000 to 10000 nM.
Take `CN(C)CC1CN(C(=O)/C=C\n2cnc(-c3cc(C(F)(F)F)cc(C(F)(F)F)c3)n2)C1` [Compound 25, (Z)-3-(3-(3,5-bis(trifluoromethyl)phenyl)-1H-1,2,4-triazol-1-yl)-1-(3-((dimethylamino)methyl)azetidin-1-yl)prop-2-en-1-one]: the EC50 at 72 h in series [1] was less than 1000 nM. Also, the AUC(0-inf) in series [2] (setting [6]) was determined as 2640 ng·h/mL.
Consider `O=C(/C=C\n1cnc(-c2cc(C(F)(F)F)cc(C(F)(F)F)c2)n1)N1CCC2(CNC2)C1` [Compound 58, (Z)-3-(3-(3,5-bis(trifluoromethyl)phenyl)-1H-1,2,4-triazol-1-yl)-1-(2,6-diazaspiro[3.4]octan-6-yl)prop-2-en-1-one 2,2,2-trifluoroacetate], for which the EC50 at 72 h in series [1] is less than 1000 nM.
In the case of `N#CC1CN(C(=O)/C=C\n2cnc(-c3cc(C(F)(F)F)cc(C(F)(F)F)c3)n2)C1` [Compound 54, (Z)-1-(3-(3-(3,5-bis(trifluoromethyl)phenyl)-1H-1,2,4-triazol-1-yl)acryloyl)azetidine-3-carbonitrile], the EC50 at 72 h in series [1] was less than 1000 nM.
`Cc1ncc(CN(C)C(=O)/C=C\n2cnc(-c3cc(C(F)(F)F)cc(C(F)(F)F)c3)n2)cn1` [Compound 18, (Z)-3-(3-(3,5-bis(trifluoromethyl)phenyl)-1H-1,2,4-triazol-1-yl)-N-methyl-N-((2-methylpyrimidin-5-yl)methyl)acrylamide]: the EC50 at 72 h in series [1] lay within 1000 to 10000 nM.

One may read the EC50 as the concentration needed to bring the measured effect to its halfway point. By Kp is commonly meant tissue or fluid exposure divided by exposure in the circulation.
